Test results from patent US8535662B2, “Apyrase therapy for bleeding conditions” (Apt Therapeutics, Inc., priority 2010, dated 2013).
Values joined by “and” are separate entries in the source; they are usually repeats but may differ in a detail not shown here. Equal values may be shown once. Marks after values point to notes of the source that are not given here.

Columns and labels:
[1] = tested on: pigs, coronary injury with stenting; test: Coronary injury (balloon overstretch) and bare metal stent in pigs: platelet accumulation and luminal stenosis (Example 6); assay type: in vivo, pig
Description: Coronary injury with or without stenting in pigs is regarded as the best preclinical model for simulation of human angioplasty (Touchard, A. G., et al., Thromb. Res. (2007) 120:477-484). One coronary artery was injured by balloon overstretch in each pig and the site of injury including some overlap with the non-injured vessel was covered with a single bare metal stent (BMS).
Accumulation of ^111In-labeled autologous platelets on the stents over the first 24 h was measured in 4/6 pigs in each group. Radiolabeled platelets were injected 15 min before the coronary catheterization and the hearts perfusion-fixed after 24 h to obtain the stented vessel segment for counting radiolabeled platelets.

[2] = tested on: rats, thromboembolic stroke (MCA occlusion); test: Rat model of thromboembolic stroke (MCA occlusion by preformed clot), apyrase agent plus aspirin (Example 2); assay type: in vivo; settings: for Neurological deficits, median (interquartile range 25th to 75th), modified Bederson score: n = 10
Description: In this study, four experimental groups were included (n=10):
(1) control, saline injected gastrically;
(2) aspirin, 1.25 mg/kg (equivalent to 100 mg/day dose in human) injected gastrically once a day, starting 3 days prior to middle cerebral artery (MCA) occlusion and also MCA occlusion until the end of each experiment;
(3) apyrase, dose at 0.75 mg/kg injected IV at 2 h after MCA occlusion;
(4) combination group, aspirin and apyrase agent.
In this clinically relevant embolic model, ischemic brain injury was induced by embolizing preformed clots into the middle cerebral artery (MCA). Ten microliters of blood were withdrawn into a catheter and retained for 15 min to allow formation of a clot. Once the clot was formed, the catheter was advanced 17 mm in the ICA until its tip was 1-2 mm away from the origin of the MCA. The preformed clot in the catheter was then injected, and the catheter was removed. […]
Infarct was measured in the brain section stained with 2,3,5-triphenyltetrazolium chloride (TTC) solution. The infarct volume was expressed as a percentage of the total volume from the ipsilateral hemisphere.
Brain swelling (edema) was determined using a formula: edema=(the volume of the right hemisphere—the volume of the left hemisphere)/the volume of the left hemisphere.
Neurological deficits were determined using a modified Bederson's scoring system as following: 0: no observable deficit; 1: forelimb flexion; 2: forelimb flexion plus decreased resistance to lateral push; 3: unidirectional circling; 4: unidirectional circling plus decreased level of consciousness.
Hemorrhagic transformation was quantified by detection of extracellular hemoglobin content in brain homogenates using Drabkin's reagents.

[3] = tested on: pigs, coronary injury with stenting; test: Coronary injury and stent in pigs: hematology, blood chemistry, coagulation, bleeding and inflammation markers (Example 6); settings: for ALT / AST / AlkPh / BUN / Creat / Glu / HGB / K / Na / PCV / Platelets / RBC / Tot. Prot / WBC: single animals and mean ± std. dev.
[4] = tested on: dogs, coronary thrombotic occlusion; test: Canine coronary thrombosis and fibrinolysis model, adjunctive treatment with rtPA (Example 7); assay type: in vivo, dog; settings: dogs
Description: Thrombotic occlusion was induced by electrical injury to a coronary artery in dogs. […] Buccal mucosa bleeding times, PT, and aPTT were measured as indices of bleeding risk. After 24 hours of reperfusion, infarct size was determined by Evan's blue and triphenyltetrazolium chloride double staining. This protocol is illustrated in FIG. 7.

[5] = tested on: ADP-induced platelet aggregation; test: Ex vivo ADP-induced platelet aggregation in platelet-rich plasma after dosing rabbits; design: species or system rabbit; settings: clopidogrel 10 mg/kg oral
Text: Blood samples taken at various time points were heparinized.
Data are presented as relative light transmission versus time.

[6] = tested on: ADP-induced platelet aggregation; test: Ex vivo ADP-induced platelet aggregation in platelet-rich plasma in pigs (Example 5); design: species or system pig
[7] = tested on: rats, embolic stroke (thrombus injection into internal carotid artery); test: Embolic stroke model in rats, apyrase agent with or without r-tPA (Example 1); assay type: in vivo, rat; settings: r-tPA 10 mg/kg alone; brains at 3 days
Description: The following groups were included in this study:
(1) control (saline treated), n=11;
(2) apyrase agent at 0.75 mg/kg, n=4;
(3) apyrase agent at 2.25 mg/kg, n=4;
(4) r-tPA (at 10 mg/kg), n=4;
(5) apyrase agent at 0.75 mg/kg plus r-tPA (10 mg/kg) and
(6) apyrase agent at 2.25 mg/kg plus r-tPA (10 mg/kg) (n=10).
All the treatments were initiated at 2 h following thrombus injection into internal carotid artery. Infarct volume and behavioral deficit were determined at day 3 after the stroke.

[8] = aspirin 5 mg/kg, clopidogrel 4 mg/kg
[9] = by the end of adjunctive therapy

Compound	ALT [3]	AST [3]	AlkPh [3]	BUN [3]	Creat [3]	Glu [3]	HGB [3]	K [3]	Na [3]	PCV [3]	Platelets [3]	RBC [3]	Tot. Prot [3]	WBC [3]	also measured
CC(=O)Oc1ccccc1C(=O)O [aspirin]	48 u/L and 25 u/L and 52 u/L and 50 u/L and 106 u/L	45 u/L and 24 u/L and 38 u/L and 29 u/L and 211 u/L	95 u/L and 68 u/L and 132 u/L and 117 u/L and 235 u/L	12 mg/dL and 10 mg/dL and 4 mg/dL and 7 mg/dL and 11 mg/dL	1.1 mg/dL (4×) and 0.9 mg/dL	30 mg/dL and 38 mg/dL and 49 mg/dL and 20 mg/dL and 58 mg/dL	9.3 g/dL and 8.1 g/dL (3×) and 7.2 g/dL	3.5 mmol/L and 3.3 mmol/L and 3.6 mmol/L and 3.2 mmol/L and 2.7 mmol/L	135 mmol/L and 140 mmol/L and 138 mmol/L and 144 mmol/L and 117 mmol/L	26.8% and 27.7% and 23.9% and 22.8% and 20.7%	301 thns/uL and 498 thns/uL and 355 thns/uL and 499 thns/uL and 213 thns/uL	5.19 mil/uL and 4.75 mil/uL and 4.9 mil/uL and 5.07 mil/uL and 4.52 mil/uL	6 g/dL and 4.5 g/dL and 4 g/dL and 5 g/dL and 4.2 g/dL	10.3 thns/uL and 16.4 thns/uL and 13.2 thns/uL and 13.9 thns/uL and 13.3 thns/uL	average luminal stenosis ([1]; 30 days after stenting, six measurements in two pigs): 29.6±6%; accumulation of radiolabeled platelets on stented coronaries ([1]; after 24 h, apyrase […] or clopidogrel 8 mg/kg, each with aspirin 10 mg/kg and heparin): 5.5×10^5 platelets/mm^2; Neurological deficits, median (interquartile range 25th to 75th), modified Bederson score ([2]; 4 h after MCA occlusion): 3; Neurological deficits, median (interquartile range 25th to 75th), modified Bederson score ([2]; 4 h after MCA occlusion, listed as Aspirin (ASA)): 3 (2-4); Neurological deficits, median (interquartile range 25th to 75th), modified Bederson score ([2]; 8 h after MCA occlusion): 2.5 (2-3); infarct volume, percentage of the total volume of the ipsilateral hemisphere (mean±SD) ([2]; 24 h after MCA occlusion, aspirin 1.25 mg/kg gastrically once a day from 3 days prior, apyrase 0.75 mg/kg IV at 2 h): 20.69±2.85%; Neurological deficits, median (interquartile range 25th to 75th), modified Bederson score ([2]; 24 h after MCA occlusion): significantly less severe than the control group; Neurological deficits, median (interquartile range 25th to 75th), modified Bederson score ([2]; 24 h after MCA occlusion, listed as Aspirin (ASA)): 1.5 (1-2)*; extracellular hemoglobin content in brain homogenates (hemorrhagic transformation, Drabkin's reagents) ([2]; 24 h after ischemic injury): 0.93±0.11; brain edema (brain swelling) ([2]; 24 h after ischemic injury, aspirin 1.25 mg/kg, apyrase 0.75 mg/kg IV at 2 h): 6.81±0.56%; Re-occlusion rate [4, 8]: 100%; Re-occlusion time [4, 8]: 81′; Reperfusion Time ([4]; aspirin 5 mg/kg, clopidogrel 4 mg/kg, after r-tPA): 23′
COC(=O)[C@H](c1ccccc1Cl)N1CCc2sccc2C1 [clopidogrel]	47 u/L and 65 u/L and 45 u/L (2×) and 43 u/L and 77 u/L	61 u/L and 63 u/L and 57 u/L and 31 u/L and 44 u/L and 64 u/L	131 u/L and 111 u/L and 225 u/L and 180 u/L (2×) and 184 u/L	13 mg/dL and 12 mg/dL and 8 mg/dL and 7 mg/dL and 11 mg/dL and 5 mg/dL	0.9 mg/dL (4×) and 1 mg/dL (2×)	20 mg/dL and 33 mg/dL and 69 mg/dL and 40 mg/dL (2×) and 30 mg/dL	7.6 g/dL and 7.8 g/dL and 6.7 g/dL and 9.2 g/dL and 9 g/dL and 8.5 g/dL	4.3 mmol/L and 4.2 mmol/L (2×) and 3.5 mmol/L and 4.4 mmol/L (2×)	131 mmol/L and 132 mmol/L and 119 mmol/L and 140 mmol/L and 134 mmol/L and 138 mmol/L	21.4% and 22.9% and 20.8% and 28% and 25% and 25.8%	248 thns/uL and 347 thns/uL and 345 thns/uL and 294 thns/uL and 298 thns/uL and 225 thns/uL	4.3 mil/uL and 4.7 mil/uL (2×) and 4.6 mil/uL and 5.8 mil/uL and 5.5 mil/uL	4.8 g/dL and 5.2 g/dL and 4.2 g/dL and 4.5 g/dL and 4.7 g/dL and 4.6 g/dL	10.8 thns/uL and 16.1 thns/uL and 11.3 thns/uL and 16.9 thns/uL (2×) and 12 thns/uL	time after treatment at which significant effect on platelet aggregation was observed [5]: 5 h; platelet aggregation by 24 h ([6]; 24 h after dosing): persistent inhibition of aggregation; time after dosing at which significant inhibition of ADP-induced platelet aggregation began ([6]; clopidogrel 8 mg/kg gavage plus aspirin and heparin): 5 h; blood loss from a standardized incision of the abdominal wall ([3]; 2 and 24 h, blood collected over 5 min): trend for an increase in blood loss by 24 h; template bleeding times relative to apyrase agent or control pigs ([3]; 2 and 24 h, scalpel cut at the edge of the ear): ~3 fold; PT compared to baseline ([3]; 3, 8 and 24 h after gavage): increased significantly compared to baseline; aPTT ([3]; during the time of heparinization): the increase was significant only in clopidogrel-treated pigs; template bleeding time ([3]; summary of findings): markedly increased; buccal mucosa bleeding time [4]: significantly prolonged; PT [4, 9]: increased; aPTT [4, 9]: increased
heparin	–	–	–	–	–	–	–	–	–	–	–	–	–	–	Activated Clotting Time relative to baseline ([3]; after heparin 150 U/kg): > 9 fold; Activated Clotting Time (ACT) ([3]; after heparin 150 U/kg (baseline 119±15 sec, n=17)): 1114 ± 286 s
r-tPA: recombinant tissue plasminogen activator	–	–	–	–	–	–	–	–	–	–	–	–	–	–	Hemorrhage #/total animals [7]: 5 out of 11 and 5/11
